Assays:
[1] = system: Mper1-luc Rat-1 fibroblasts (P2C4); assay: Cellular Circadian Assay (Mper1-luc reporter period lengthening); type: cell-based; conditions: effective concentration that induces a 1 hour lengthening of circadian period
Text: The assay consists of Rat-1 fibroblasts stably expressing a Mper1-luc construct, thus enabling the determination of the rhythmic activation of the Mper1 promoter in living cells by repeatedly estimating luciferase activity by monitoring light-output over several days. The repeated measure format of the assay permits accurate and reproducible assessment of the concentration-dependent effects of CKIε inhibitors on circadian rhythm and provides the nexus for relating CKIε inhibition to circadian period alteration.
Cellular Circadian Assay Experimental Procedures
Stable transfection: Co-transfect Rat-1 fibroblast cultures at 30-50% confluence with vectors containing the Zeocin resistance selectable marker for stable transfection and an mPer-1 promoter-driven luciferase reporter gene. After 24-48 hours, split the cultures onto 96 well plates and maintain in growth media supplemented with 50-100 μg/mL Zeocin (Invitrogen #45-0430) for 10-14 days. Assess Zeocin-resistant stable transfectants for reporter expression by supplementing growth media with 100 μM luciferin (Promega #E1603) and assaying luciferase activity on a TopCount scintillation counter (Packard Model #C384V00). […] Select Mper1-luc Rat-1 fibroblasts clone P2C4 for compound testing. […] After synchronization, rinse cultures with 100 μL EMEM (Cellgro #10-010-CV) for 10 minutes at room temperature. […] Add compounds to be tested for circadian effects to CO2-independent media in 0.3% DMSO (final concentration). […] Estimate in vivo luciferase activity by measuring relative light output on a TopCount scintillation counter (Packard Model #C384V00). Transfer plates from incubator to reader using an ORCA robotic arm (Beckman Instruments) and SAMI-NT automated scheduling software (Version 3.3; SAGIAN/Beckman Instruments). Data Analysis: Use Microsoft Excel and XLfit (Version 2.0.9; IDBS) to import, manipulate and graph data. Perform period analysis either by determining the interval between relative light output minima over several days or by Fourier Transform. […] Analyze the data by fitting a hyperbolic curve to the data expressed as period change (y-axis) versus the concentration of test compound (x-axis) in XLfit and interpolate the EC[…]t+1h from this curve.

[2] = target: T1, Casein Kinase Iε (Homo sapiens, UniProt P49674); assay: Casein Kinase Epsilon 33P-ATP Filter Plate Assay; type: biochemical
T1 construct: made in house
T1 sequence (P49674 whole entry): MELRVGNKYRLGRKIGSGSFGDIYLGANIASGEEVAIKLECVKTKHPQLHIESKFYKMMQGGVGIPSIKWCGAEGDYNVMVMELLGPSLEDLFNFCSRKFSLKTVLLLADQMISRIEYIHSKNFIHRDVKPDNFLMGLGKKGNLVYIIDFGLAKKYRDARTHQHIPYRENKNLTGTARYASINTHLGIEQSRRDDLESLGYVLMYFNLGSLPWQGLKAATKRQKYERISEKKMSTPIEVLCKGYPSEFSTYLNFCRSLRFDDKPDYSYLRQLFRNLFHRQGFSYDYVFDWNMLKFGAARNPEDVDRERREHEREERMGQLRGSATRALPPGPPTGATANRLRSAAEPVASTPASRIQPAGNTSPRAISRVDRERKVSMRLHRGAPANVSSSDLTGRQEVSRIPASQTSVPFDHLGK
Text: Casein Kinase Epsilon ^33P-ATP Filter Plate Assay for Screening CKIε Inhibitors
Purpose: This assay measures the ability of compounds to inhibit the phosphorylation of the substrate casein by the enzyme casein kinase 1ε using an in vitro ^33P-ATP filtration assay. […] Materials:
Equipment: • Beckman Biomek 2000 Liquid Handling Robot • Beckman Multimek 96 Automated 96 Channel Pipettor • Millipore Vacuum Manifold Basic Kit # MAVM0960R • Titertek Multidrop Liquid Dispenser • Packard TopCount NXT Liquid Scintillation Counter
Enzyme: • Casein Kinase 1ε final concentration 0.58 mg/ml obtained from fermentation and purification processes as are well known to one skilled in the art. The above are stored as 100 μL aliquots at minus 80° C.
Compounds: • Supply compounds for testing as frozen 10 mM compound stock dissolved in 100% DMSO. Assay Conditions:
Final total assay volume per well is equal to 50 μL that one prepares as follows: • 5 μL of diluted compound stock (10, 1, 0.1, 0.01 or 0.001 μM), • 5 μL of dephosphorylated casein final concentration 0.2 μg/μL, • 20 μL of CK1ε final concentration 3 ng/μL, and • 20 μL of γ-^33P-ATP final concentration 0.02 μCi/μL mixed with cold ATP (10 μM final). Methodology: • 1. Prepare 500 mL of fresh assay buffer: 50 mM Tris pH 7.5, 10 mM MgCl2, 2 mM DTT and 1 mM EGTA • 2. Obtain compounds to be evaluated as 10 μL of 10 mM stock dissolved in 100% DMSO. Use a Biomek 2000 liquid handling robot, make serial dilutions to yield 10, 1, 0.1, 0.01 and 0.001 μM final compound dilutions added as 5 μL additions to Falcon U bottom plates. […] A routine screening assay will consist of 32 compounds, which equals 4 assay plates. • 3. Assay plate maps are set up according to the following pattern CK1ePlateMap.xls
• 4. Add 5 μL of compound as indicated, then add 5 μL of dephosphorylated casein (dissolved in distilled H20)(0.2 μg/μL) and 20 μL CK1ε (3 ng/μL) to the appropriate wells. • 5. Finally add 20 μL γ-^33P-ATP (0.02 μCi/μL)/10 μM cold ATP (equals approximately 2×10^6 CPM per well). • 6. Vortes the Falcon U-Bottom assay plate containing the above 50 μL reaction volume and then incubate at room temperature for 2 hours. • 7. At the end of 2 hours, stop the reaction by the addition of 65 μL of ice cold 2 mM cold ATP (made up in assay buffer) to the assay plates using a Beckman Multimek. • 8. At the same time add 25 μL 100% ice cold TCA made up in distilled H20 to a matching number of Millipore MAPH filter plates. • 9. Using a handheld 8-channel pipettor, transfer 100 μL of the reaction mixture from the Falcon U-Bottom Plate to the Millipore MAPH filter plates presoaked with TCA. • 10. Mix the Millipore MAPH filter plates gently and allow to sit at room temperature for at least 30 minutes to precipitate the proteins. • 11. After 30 minutes, place the filter plates on a Millipore vacuum manifold and filter at no more than 8 mm Hg as the MAPH filters tend to “air lock” at higher vacuum settings. • 12. Wash the filter plates sequentially and filter with 2×150 μL 20% TCA, 2×150 μL 10% TCA and 2×150 μL 5% TCA (total of 6 washes per plate/900 μL per well). • 13. Allow the plates to dry overnight at room temperature. The next day add 40 μL Packard Microscint-20 Scintillation Fluid per well using a Titertek Multidrop dispenser; seal the plates and count for 2 minutes/well in a Packard Topcount NXT Scintillation Counter (to provide CPM values/well). Calculation: • 1. Import Counts Per Minute (CPM) data into a proprietary data calculation and archiving database (Activity Base by IDBS version 5.0). • 2. Column 1 for each plate reflects total phosphorylation activity of the enzyme in the absence of any inhibiting compound and thus represents 100%. Column 12 reflects any nonspecific phosphorylation/retained radioactivity activity in the absence of inhibiting compound and enzyme.

Row | Compound | Cell Assay ECΔτ1h [1] [µM] | Ki [2] [µM]
1 | NC(=O)c1[nH]c2sccc2c1Sc1ccccc1 [IIb, 4-(phenylsulfanyl)-6H-thieno[2,3-b]pyrrole-5-carboxylic acid amide] | 0.874 | 0.811
2 | NC(=O)c1[nH]c2sccc2c1Sc1cccc(Br)c1 [IIg, 4-(3-Bromophenyl-sulfanyl)-6H-thieno[2,3-b]pyrrole-5-carboxylic acid amide] | 2.492 | 0.0306
3 | Cc1nc2c(Sc3cccc(F)c3)c(C(N)=O)[nH]c2s1 [IIn, 6-(3-Fluorophenyl-sulfanyl)-2-methyl-4H-pyrrolo[3,2-d]thiazole-5-carboxylic acid amide] | 0.998 | 0.0159
4 | Cc1nc2c(Sc3cccc(Cl)c3)c(C(N)=O)[nH]c2s1 [IIo, 6-(3-Chlorophenyl-sulfanyl)-2-methyl-4H-pyrrolo[3,2-d]thiazole-5-carboxylic acid amide] | 0.662 | 0.0096
5 | NC(=O)c1[nH]c2scnc2c1Sc1ccccc1 [IIs, 6-Phenylsulfanyl-4H-pyrrolo[3,2-d]thiazole-5-carboxylic acid amide] | 1.155 | 0.047
6 | COc1cccc(Sc2c(C(N)=O)[nH]c3scnc23)c1 [IIt, 6-(3-Methoxyphenyl-sulfanyl)-4H-pyrrolo[3,2-d]thiazole-5-carboxylic acid amide] | 1.974 | 0.022
7 | NC(=O)c1[nH]c2ccsc2c1Sc1ccccc1N [Id, 6-(2-Aminophenyl-sulfanyl)-4H-thieno[3,2-b]pyrrole-5-carboxylic acid amide] | >30 | 0.11
